Data on 21 compounds can be found in patent US10065943B2, “Pyrrolidine derivatives as angiotensin II type 2 antagonists” (NOVARTIS AG, priority 2015, dated 2018).

The assay concerns the target T1, human AT2 receptor (Homo sapiens, UniProt P50052).
T1 construct: membranes prepared in house
T1 sequence (P50052 1-363): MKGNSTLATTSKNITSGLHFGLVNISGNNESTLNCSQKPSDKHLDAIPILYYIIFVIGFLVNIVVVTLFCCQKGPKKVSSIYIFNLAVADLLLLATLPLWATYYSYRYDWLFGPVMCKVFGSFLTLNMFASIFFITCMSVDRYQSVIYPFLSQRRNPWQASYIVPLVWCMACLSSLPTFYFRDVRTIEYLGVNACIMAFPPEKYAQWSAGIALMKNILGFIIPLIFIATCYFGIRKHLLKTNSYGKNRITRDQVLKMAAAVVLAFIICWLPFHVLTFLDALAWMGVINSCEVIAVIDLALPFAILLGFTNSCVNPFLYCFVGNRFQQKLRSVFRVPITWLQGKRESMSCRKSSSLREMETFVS
The assay can be described thus: AT2 receptor binding ([125I]CGP 42112A displacement, CHO-K1 membranes). The following applies: [125I]CGP 42112A 0.05 nM, membranes of CHO-K1 cells expressing human AT2 receptor; Ki from IC50 by Cheng-Prussoff equation; read-out: Ki. The text has this: Reagents were purchased from Sigma-Aldrich, unless otherwise specified. Dialyzed fetal bovine serum (FBS) was from Life Technologies (cat. no. 10073772). Valiscreen® human angiotensin AT2 receptor cell line (cat. no. ES-070-C), [^125I]CGP 42112A (cat. no. NEX324025UC) and MicroScint™ 40 (cat. no. 6013641) were purchased from PerkinElmer. CGP 42112A (cat. no. 2569) and PD 123,319 ditrifluoroacetate (cat. no. 1361) were from Tocris Biosciences.
• 1. Growth medium • EX-CELL® CHO DHFR^− medium • 10% FBS, dialysed • 1 mM sodium pyruvate • 2 mM L-glutamine • 2. Harvesting buffer • PBS • 2 mM EDTA • 3. Suspension buffer • 50 mM Tris-HCl, pH 7.4 • 10 mM EDTA • 4. Resuspension buffer • 50 mM Tris-HCl, pH 7.4 • 0.1 mM EDTA • 0.1% sucrose • 5. Binding assay buffer • 50 mM Tris-HCl, pH 7.4 • 5 mM MgCl2 • 1 mM EDTA • 0.1% gelatin • 6. Wash buffer • 50 mM Tris-HCl, pH 7.4 Procedure for Membrane Preparation • Valiscreen® CHO-K1 cells stably expressing the human AT2 receptor were cultured in growth medium. • Cells were seeded into T-175 flasks and grown to 70-80% confluence. • Medium was removed from confluent flasks and cells were washed with warm PBS. • Cells were harvested by incubating with harvesting buffer for 10 min at 37° C., and then transferred to a centrifuge tube on ice. • Cells were centrifuged at 200 g for 5 min at 4° C. • Cell pellets were homogenised in ice-cold suspension buffer. • Homogenates were centrifuged at 40,000 g for 15 min at 4° C. • Pellets were resuspended in ice-cold resuspension buffer and centrifuged at 40,000 g for 15 min at 4° C. • Final pellets were homogenised in ice-cold resuspension buffer. • Protein concentrations were determined by BCA assay method with BSA as standard. Compound Preparation
Compounds were prepared from 10 mM stock solutions in 100% DMSO. Dilutions were made using electronic multichannel pipettes.
• Compounds dilutions were prepared in 100% DMSO at 100× final assay concentration. • Compounds were diluted in 100% DMSO to the appropriate maximal concentration. • 30 μL compound was added to row A. • 21.6 μL of 100% DMSO was added to rows B-H. • Transfer 10 μL from row A into row B (half log dilution). • Transfer 10 μL from row B into row C (half log dilution). • Transfer 10 μL from row C into row D (half log dilution). • Transfer 10 μL from row D into row E (half log dilution). • Transfer 10 μL from row E into row F (half log dilution). • Transfer 10 μL from row F into row G (half log dilution). • Transfer 10 μL from row G into row H (half log dilution). Working Plate Preparation (96-Well Plate) • Compounds were diluted 10-fold in assay buffer. • 10 μL compound solution from dose plate was transferred to corresponding well of working plate. • 90 μL assay buffer was added to the wells of working plate. • Working solutions contained 10% DMSO in assay buffer (1% DMSO final assay concentration). Controls • Total binding (high control) was determined in the absence of unlabelled ligand. A solution of 10% DMSO in assay buffer was prepared. • Non-specific binding (low control) was determined in the presence of a vast excess (10 μM) of PD 123,319. 1 mM stock solution of PD 123,319 in water was diluted 10-fold with 10% DMSO in assay buffer. Assay Plate Preparation (96-Well Plate)
15 μL compound solution was transferred to duplicate wells of assay plate. 5 compounds were tested per plate. 15 μL control solutions were transferred to columns 1 and 12 of assay plate.
For orientation: Ki means a dissociation constant, usually derived from enzyme kinetics or from competition with a known ligand. Consider `O=C(O)[C@@H]1C[C@H](N2CCc3ccccc3CC2)CN1C(=O)C(c1ccccc1)c1ccccc1` [Compound 45, (2S,4S)-1-(2,2-Diphenylacetyl)-4-(1,2,4,5-tetrahydro-3H-benzo[d]azepin-3-yl)pyrrolidine-2-carboxylic acid], for which the Ki turned out to be 28.2 nM.
With `O=C(O)[C@@H]1C[C@H](N2CCCOc3cc(F)c(F)cc32)CN1C(=O)C(c1ccccc1)c1ccccc1` [Compound 21, (2S,4S)-4-(7,8-difluoro-3,4-dihydrobenzo[b][1,4]oxazepin-5(2H)-yl)-1-(2,2-diphenylacetyl)pyrrolidine-2-carboxylic acid] the figure was 2.3 nM; with `C[C@@]1(C(=O)NS(=O)(=O)C2CC2)C[C@@H](N2CCCOc3cc(F)c(F)cc32)CN1C(=O)C(c1ccccc1)c1ccccc1` [Compound 42a, (2S,4R)—N-(cyclopropylsulfonyl)-4-(7,8-difluoro-3,4-dihydrobenzo[b][1,4]oxazepin-5(2H)-yl)-1-(2,2-diphenylacetyl)-2-methylpyrrolidine-2-carboxamide], 5 nM; with `C[C@@]1(C(=O)O)C[C@H](N2CCCCc3cc(F)c(F)cc32)CN1C(=O)C(c1ccccc1)c1ccccc1` [Compound 31, (2S,4S)-4-(7,8-Difluoro-2,3,4,5-tetrahydro-1H-benzo[b]azepin-1-yl)-1-(2,2-diphenylacetyl)-2-methylpyrrolidine-2-carboxylic acid], 11.8 nM.
With `O=C(O)[C@@H]1C[C@H](N2CCOCc3ccccc32)CN1C(=O)C(c1ccccc1)c1ccccc1` [Compound 10, (2S,4S)-4-(2,3-Dihydrobenzo[e][1,4]oxazepin-1(5H)-yl)-1-(2,2-diphenylacetyl)pyrrolidine-2-carboxylic acid] the figure was 148 nM.
As for `O=C(O)[C@@H]1C[C@H](N2CCCS(=O)(=O)c3ccccc32)CN1C(=O)C(c1ccccc1)c1ccccc1` [Compound 34, (2S,4S)-4-(1,1-Dioxido-3,4-dihydrobenzo[b][1,4]thiazepin-5(2H)-yl)-1-(2,2-diphenylacetyl)pyrrolidine-2-carboxylic acid], the Ki is 10 nM.
With `O=C(O)[C@@H]1C[C@H](N2CCCOc3ccc(F)cc32)CN1C(=O)C(c1ccccc1)c1ccccc1` [Compound 8, (2S,4S)-1-(2,2-Diphenylacetyl)-4-(7-fluoro-3,4-dihydrobenzo[b][1,4]oxazepin-5(2H)-yl)pyrrolidine-2-carboxylic acid] the figure was 1.4 nM; with `O=C(O)[C@@H]1C[C@H](N2CCCCc3ccc(F)cc32)CN1C(=O)C(c1ccccc1)c1ccccc1` [Compound 2, (2S,4S)-1-(2,2-Diphenylacetyl)-4-(8-fluoro-2,3,4,5-tetrahydro-1H-benzo[b]azepin-1-yl)pyrrolidine-2-carboxylic acid], 4.7 nM.
On to `O=C(O)[C@@H]1C[C@H](N2Cc3ccccc3C2)CN1C(=O)C(c1ccccc1)c1ccccc1` [Compound 20, (2S,4S)-1-(2,2-Diphenylacetyl)-4-(isoindolin-2-yl)pyrrolidine-2-carboxylic acid], for which the inhibition constant (Ki) worked out at 359 nM.
Regarding `CN(C)S(=O)(=O)NC(=O)[C@@H]1C[C@H](N2CCCCc3cc(F)c(F)cc32)CN1C(=O)C(c1ccccc1)c1ccccc1` [Compound 40, (2S,4S)-4-(7,8-Difluoro-2,3,4,5-tetrahydro-1H-benzo[b]azepin-1-yl)-N—(N,N-dimethylsulfamoyl)-1-(2,2-diphenylacetyl)pyrrolidine-2-carboxamide], the Ki stood at 9.3 nM.
With `O=C(O)[C@@H]1C[C@H](N2CCCOc3ccccc32)CN1C(=O)C(c1ccccc1)c1ccccc1` [Compound 7, (2S,4S)-4-(3,4-dihydrobenzo[b][1,4]oxazepin-5(2H)-yl)-1-(2,2-diphenylacetyl)pyrrolidine-2-carboxylic acid] the figure was 2 nM; with `O=C(O)[C@@H]1C[C@H](N2CCCCc3cc(Cl)ccc32)CN1C(=O)C(c1ccccc1)c1ccccc1` [Compound 6, (2S,4S)-4-(7-Chloro-2,3,4,5-tetrahydro-1H-benzo[b]azepin-1-yl)-1-(2,2-diphenylacetyl)pyrrolidine-2-carboxylic acid], 22.8 nM; with `O=C(O)[C@@H]1C[C@H](N2CCc3ccccc32)CN1C(=O)C(c1ccccc1)c1ccccc1` [Compound 29, (2S,4S)-1-(2,2-Diphenylacetyl)-4-(indolin-1-yl)pyrrolidine-2-carboxylic acid], 225 nM.
Next, `O=C(O)[C@@H]1C[C@@H](N2CCCOc3ccccc32)CN1C(=O)C(c1ccccc1)c1ccccc1` [Compound 26, (2S,4R)-4-(3,4-Dihydrobenzo[b][1,4]oxazepin-5(2H)-yl)-1-(2,2-diphenylacetyl)pyrrolidine-2-carboxylic acid]: 4.1 nM; `O=C(O)[C@@H]1C[C@H](N2CCCCc3ccccc32)CN1C(=O)C(c1ccccc1)c1ccccc1` [Compound 1, (2S,4S)-1-(2,2-Diphenylacetyl)-4-(2,3,4,5-tetrahydro-1H-benzo[b]azepin-1-yl)pyrrolidine-2-carboxylic acid]: 2.7 nM.
With `Cc1ccc2c(c1)N([C@@H]1C[C@@H](C(=O)O)N(C(=O)C(c3ccccc3)c3ccccc3)C1)CCCC2` [Compound 23, (2S,4R)-1-(2,2-Diphenylacetyl)-4-(8-methyl-2,3,4,5-tetrahydro-1H-benzo[b]azepin-1-yl)pyrrolidine-2-carboxylic acid] the figure was 15.9 nM.
As for `O=C(O)[C@@H]1C[C@H](N2CCCc3ccccc3C2)CN1C(=O)C(c1ccccc1)c1ccccc1` [Compound 18, (2S,4S)-1-(2,2-Diphenylacetyl)-4-(1,3,4,5-tetrahydro-2H-benzo[c]azepin-2-yl)pyrrolidine-2-carboxylic acid], the Ki was determined as 79.7 nM.
Next, `O=C(O)[C@@H]1C[C@H](N2CCCOc3cc(F)ccc32)CN1C(=O)C(c1ccccc1)c1ccccc1` [Compound 9, (2S,4S)-1-(2,2-diphenylacetyl)-4-(8-fluoro-3,4-dihydrobenzo[b][1,4]oxazepin-5(2H)-yl)pyrrolidine-2-carboxylic acid]: 3.1 nM.
Next, `O=C(O)[C@@H]1C[C@@H](N2CCCCc3ccccc32)CN1C(=O)C(c1ccccc1)c1ccccc1` [Compound 22, (2S,4R)-1-(2,2-diphenylacetyl)-4-(2,3,4,5-tetrahydro-1H-benzo[b]azepin-1-yl)pyrrolidine-2-carboxylic acid]: 9.8 nM; `O=C(NS(=O)(=O)C1CC1)[C@@H]1C[C@H](N2CCCCc3ccccc32)CN1C(=O)C(c1ccccc1)c1ccccc1` [Compound 43, (2S,4S)—N-(Cyclopropylsulfonyl)-1-(2,2-diphenylacetyl)-4-(2,3,4,5-tetrahydro-1H-benzo[b]azepin-1-yl)pyrrolidine-2-carboxamide]: 8.6 nM.
Next, `O=C(O)[C@@H]1C[C@H](N2CCCCc3cccnc32)CN1C(=O)C(c1ccccc1)c1ccccc1` [Compound 12, (2S,4S)-1-(2,2-Diphenylacetyl)-4-(5,6,7,8-tetrahydro-9H-pyrido[2,3-b]azepin-9-yl)pyrrolidine-2-carboxylic acid]: 81 nM.
